These results are taken from patent US20110014294A1, “STIMULATION OF OCULAR RETROBULBAR BLOOD FLOW USING OCULAR IRRITANTS” (PHARMALIGHT INC., priority 2008, published 2011).

Data set [1] has as its system retrobulbar blood flow. The data set is described as follows: Effect of benzalkonium chloride compositions on retrobulbar blood flow (Example 2). The data set is classed as in vivo. Conditions: benzalkonium chloride (0.01%, 0.05, 0.1%, 0.2% in isotonic PBS pH 7.4), sufficient amount, as a mist; animals. Here is the method:
The effect of compositions including benzalkonium chloride administered in accordance with the teachings herein is performed substantially as described in Example 1. Specifically, four isotonic PBS compositions having pH of 7.4 are prepared having 0.01%, 0.05, 0.1% and 0.2% benzalkonium chloride, respectively, as an ocular irritant.
The compositions are administered to animals and the effect on retrobulbar blood flow is determined, substantially as described above.

Data set [2] relates to eye. As to the kind of experiment: Discomfort and irritation of animals after benzalkonium chloride compositions (Example 2). The class given is in vivo.

Regarding benzalkonium chloride, the “Effect on retinal blood flow” value in data set [1] is reported as “substantial increase in retinal blood flow”. For the same substance, the Discomfort and irritation result in data set [2] (benzalkonium chloride composition as a mist) was “little or no substantial discomfort and irritation”; in data set [2] (benzalkonium chloride composition as drops), “cause discomfort and irritation”.
